Values quoted from earlier work in publication PMC9097188, “Design, Synthesis, and Molecular Modeling Studies of a Novel Benzimidazole as an Aromatase Inhibitor” (ACS Omega, 2022).

Target: aromatase
Conditions: 3D-QSAR data set, IC50 converted to pIC50; SI reference list; cited from earlier work

| Structure (SMILES) | Experimental pIC50 |
| --- | --- |
| CCn1c([C@@H](c2cccc(Cl)c2)n2ccnc2)c(C)c2cc(Br)ccc21 [69R] | 6.027 |
| COc1ccc(-n2c(Cn3ccnc3)cc3ccc(Cl)cc32)cc1 [compound 26] | 6.692 |
| COc1ccc(S(=O)(=O)NCCc2c(C(c3ccccc3)c3[nH]c4ccccc4c3CCNS(=O)(=O)c3ccc(OC)cc3)[nH]c3ccccc23)cc1 [compound 31] | 5.456 |
| Fc1ccc(C2=Nn3c(nnc3-c3ccc(-c4nc5ccccc5[nH]4)cc3)SC2)cc1 [compound 101] | 5.765 |
| Cc1[nH]c2ccccc2c1C=NNc1cc(F)cc(F)c1 [compound 105] | 4.886 |
| Cc1[nH]c2ccccc2c1C=NNc1cccc(Cl)c1 [compound 106] | 4.718 |
| O=S(=O)(NCCc1c(C(c2ccc(F)cc2)c2[nH]c3ccccc3c2CCNS(=O)(=O)c2ccc(Cl)cc2)[nH]c2ccccc12)c1ccc(Cl)cc1 [compound 41] | 5.268 |
| Cc1ccc2cc(Cn3ccnc3)n(-c3ccccc3)c2c1 [compound 15] | 7.670 |
| O[C@@](c1ccc(Br)cc1)(c1cccnc1)c1cc2ccccc2o1 [85S] | 4.600 |
| O=S(=O)(NCCc1c(C(c2ccc(O)cc2)c2[nH]c3ccccc3c2CCNS(=O)(=O)c2ccc(C(F)(F)F)cc2)[nH]c2ccccc12)c1ccc(C(F)(F)F)cc1 [compound 48] | 5.886 |
| Clc1cccc([C@H](c2ccc3[nH]ccc3c2)n2ccnc2)c1 [3S] | 6.527 |
| N#Cc1ccc([C@H](c2ccc3[nH]ccc3c2)n2ccnc2)cc1 [5R] | 7.714 |
| Fc1ccccc1-n1cc(Cn2ccnc2)c2ccccc21 [compound 114] | 6.377 |
| Cc1ccc(S(=O)(=O)NCCc2c(C(c3ccccc3)c3[nH]c4ccccc4c3CCNS(=O)(=O)c3ccc(C)cc3)[nH]c3ccccc23)cc1 [compound 29] | 4.924 |
| CCn1cc([C@H](c2ccc(F)cc2)n2ccnc2)c2cc(C#N)ccc21 [76S] | 6.495 |
| O=C1Nc2ccccc2C1(c1[nH]c2ccccc2c1CCNS(=O)(=O)c1ccc(Cl)cc1)c1[nH]c2ccccc2c1CCNS(=O)(=O)c1ccc(Cl)cc1 [compound 60] | 5.081 |
| OCc1cn(-c2ccccc2Cl)c2ccccc12 [compound 108] | 7.268 |
| CCn1cc([C@H](c2ccccc2Cl)n2ccnc2)c2cc(Br)ccc21 [121R] | 6.009 |
| CC(C)n1cc([C@@H](c2ccc(F)cc2)n2ccnc2)c2cc(Br)ccc21 [78R] | 6.495 |
| Fc1ccc(C2=Nn3c(nnc3-c3ccc(-c4nc5ccc(Cl)cc5[nH]4)cc3)SC2)cc1 [compound 102] | 5.643 |
| O=[N+]([O-])c1ccc(S(=O)(=O)NCCc2c(C(c3ccccc3)c3[nH]c4ccccc4c3CCNS(=O)(=O)c3ccc([N+](=O)[O-])cc3)[nH]c3ccccc23)cc1 [compound 30] | 4.951 |
| O=S(=O)(NCCc1c(C(c2ccc(F)cc2)c2[nH]c3ccccc3c2CCNS(=O)(=O)c2ccc(Br)cc2)[nH]c2ccccc12)c1ccc(Br)cc1 [compound 40] | 5.119 |
| N#Cc1ccc(C(c2[nH]c3ccccc3c2CCNS(=O)(=O)c2ccc(F)cc2)c2[nH]c3ccccc3c2CCNS(=O)(=O)c2ccc(F)cc2)cc1 [compound 36] | 5.009 |

| Structure (SMILES) | Experimental pIC50 |
| --- | --- |
| O=S(=O)(NCCc1c(C(c2ccccc2O)c2[nH]c3ccccc3c2CCNS(=O)(=O)c2ccc(Cl)cc2)[nH]c2ccccc12)c1ccc(Cl)cc1 [compound 53] | 5.377 |
| CCn1cc([C@@H](c2ccc(Cl)cc2Cl)n2cccc2)c2cc(Br)ccc21 [118S] | 6.478 |
| O=[N+]([O-])c1ccc(C(c2[nH]c3ccccc3c2CCNS(=O)(=O)c2ccc(C(F)(F)F)cc2)c2[nH]c3ccccc3c2CCNS(=O)(=O)c2ccc(C(F)(F)F)cc2)cc1 [compound 34] | 5.398 |
| O=S(=O)(NCCc1c(C(c2ccc(Br)cc2)c2[nH]c3ccccc3c2CCNS(=O)(=O)c2ccc(C(F)(F)F)cc2)[nH]c2ccccc12)c1ccc(C(F)(F)F)cc1 [compound 39] | 5.469 |
| N#Cc1ccc(C(c2[nH]c3ccccc3c2CCNS(=O)(=O)c2ccc(Cl)cc2)c2[nH]c3ccccc3c2CCNS(=O)(=O)c2ccc(Cl)cc2)cc1 [compound 35] | 5.260 |
| CCn1cc(C(c2ccc(F)cc2)n2cncn2)c2cc(Br)ccc21 (centres unmarked) [123S] | 5.149 |
| Clc1ccccc1-n1cc(Cn2ccnc2)c2ccccc21 [compound 112] | 6.762 |
| N#Cc1ccc(C2=Nn3c(nnc3-c3ccc(-c4nc5ccc(Cl)cc5[nH]4)cc3)SC2)cc1 [compound 103] | 5.806 |
| CCn1cc([C@H](c2ccc(Cl)cc2Cl)n2cccc2)c2cc(Br)ccc21 [118R] | 6.478 |
| CCn1c2ccccc2c2cc(C(c3[nH]c4ccccc4c3CCNS(=O)(=O)c3ccccc3)c3[nH]c4ccccc4c3CCNS(=O)(=O)c3ccccc3)ccc21 [compound 58] | 5.409 |
| Clc1cccc([C@@H](c2ccc3[nH]ccc3c2)n2ccnc2)c1 [3R] | 6.527 |
| O=S(=O)(NCCc1c[nH]c2ccccc12)c1ccccc1 [compound 65] | 6.699 |
| Cc1ccc(S(=O)(=O)NCCc2c(C(c3ccccc3O)c3[nH]c4ccccc4c3CCNS(=O)(=O)c3ccc(C)cc3)[nH]c3ccccc23)cc1 [compound 50] | 5.387 |
| CCn1c([C@H](c2ccc(F)cc2)n2ccnc2)c(C)c2ccccc21 [73S] | 6.921 |
| O=C1Nc2ccccc2C1(c1[nH]c2ccccc2c1CCNS(=O)(=O)c1ccccc1[N+](=O)[O-])c1[nH]c2ccccc2c1CCNS(=O)(=O)c1ccccc1[N+](=O)[O-] [compound 62] | 5.009 |
| CCn1cc([C@H](c2ccc(F)cc2)n2cncn2)c2cc(Br)ccc21 [119S] | 6.016 |
| O=[N+]([O-])c1cccc(S(=O)(=O)NCCc2c(C(c3ccccc3O)c3[nH]c4ccccc4c3CCNS(=O)(=O)c3cccc([N+](=O)[O-])c3)[nH]c3ccccc23)c1 [compound 54] | 5.770 |
| O=S(=O)(NCCc1c(C(c2ccc(C(F)(F)F)cc2)c2[nH]c3ccccc3c2CCNS(=O)(=O)c2ccc(Br)cc2)[nH]c2ccccc12)c1ccc(Br)cc1 [compound 43] | 5.420 |
| N#Cc1ccc(C(c2[nH]c3ccccc3c2CCNS(=O)(=O)c2ccc(C(F)(F)F)cc2)c2[nH]c3ccccc3c2CCNS(=O)(=O)c2ccc(C(F)(F)F)cc2)cc1 [compound 37] | 4.815 |
| O[C@](c1ccc(Br)cc1)(c1cccnc1)c1cc2ccccc2o1 [85R] | 4.600 |
| OCc1cn(-c2ccccc2F)c2ccccc12 [compound 109] | 6.907 |
| CCn1cc([C@@H](c2ccc(F)cc2)n2ccnc2)c2cc(C#N)ccc21 [76R] | 6.495 |
| CCn1cc([C@@H](c2ccccc2Cl)n2ccnc2)c2cc(Br)ccc21 [121S] | 6.009 |

| Structure (SMILES) | Experimental pIC50 |
| --- | --- |
| CCn1cc([C@@H](c2ccc(Cl)cc2Cl)n2cncn2)c2cc(Br)ccc21 [120S] | 6.206 |
| Fc1cccc(-n2cc(Cn3ccnc3)c3ccccc32)c1 [compound 115] | 5.513 |
| CCn1cc([C@H](c2ccc(Cl)cc2Cl)n2cncn2)c2cc(Br)ccc21 [120R] | 6.206 |
| COc1ccc(-n2c(Cn3ccnc3)cc3ccc(C)cc32)cc1 [compound 17] | 6.858 |
| Cc1ccc2nc(-c3ccc(-c4nnc5n4N=C(c4ccc(F)cc4)CS5)cc3)[nH]c2c1 [compound 80] | 5.906 |
| O=[N+]([O-])c1ccccc1S(=O)(=O)NCCc1c(C(c2ccccc2O)c2[nH]c3ccccc3c2CCNS(=O)(=O)c2ccccc2[N+](=O)[O-])[nH]c2ccccc12 [compound 55] | 5.337 |
| Cc1[nH]c2ccccc2c1C=NNc1ccc(Cl)cc1 [compound 107] | 5.062 |
| O=S(=O)(NCCc1c(C(c2ccc3c(c2)Cc2ccccc2-3)c2[nH]c3ccccc3c2CCNS(=O)(=O)c2ccc(Cl)cc2)[nH]c2ccccc12)c1ccc(Cl)cc1 [compound 57] | 5.056 |
| Cc1ccc2nc(-c3ccc(-c4nnc5n4N=C(c4ccc(F)cc4F)CS5)cc3)[nH]c2c1 [compound 82] | 7.432 |
| COc1ccc(S(=O)(=O)NCCc2c(C(c3ccc(O)cc3)c3[nH]c4ccccc4c3CCNS(=O)(=O)c3ccc(OC)cc3)[nH]c3ccccc23)cc1 [compound 46] | 6.155 |
| COc1ccc(S(=O)(=O)NCCc2c(C(c3cc(OC)c(O)c(OC)c3)c3[nH]c4ccccc4c3CCNS(=O)(=O)c3ccc(OC)cc3)[nH]c3ccccc23)cc1 [compound 56] | 5.602 |
| CCn1cc([C@@H](c2ccc(F)cc2)n2cncn2)c2cc(Br)ccc21 [119R] | 6.016 |
| O=C1Nc2ccccc2C1(c1[nH]c2ccccc2c1CCNS(=O)(=O)c1cccc([N+](=O)[O-])c1)c1[nH]c2ccccc2c1CCNS(=O)(=O)c1cccc([N+](=O)[O-])c1 [compound 61] | 4.924 |
| Cc1ccc(S(=O)(=O)Nc2ccc3[nH]ccc3c2)cc1 [compound 63] | 6.796 |
| COc1ccc2cc(Cn3ccnc3)n(-c3ccc(F)cc3)c2c1 [compound 21] | 7.310 |
| Cc1[nH]c2ccccc2c1C=NNc1cccc(F)c1 [compound 104] | 4.939 |
| CC(C)n1cc([C@H](c2ccc(F)cc2)n2ccnc2)c2cc(Br)ccc21 [78S] | 6.495 |
| N#Cc1ccc(-n2cc(Cn3ccnc3)c3ccccc32)cc1 [compound 116] | 5.851 |
| O=S(=O)(NCCc1c(C(c2ccc(C(F)(F)F)cc2)c2[nH]c3ccccc3c2CCNS(=O)(=O)c2ccc(C(F)(F)F)cc2)[nH]c2ccccc12)c1ccc(C(F)(F)F)cc1 [compound 45] | 5.638 |
| N#Cc1ccc(C(c2ccc3[nH]ccc3c2)n2ccnc2)cc1 (centres unmarked) [5S] | 7.714 |
| O=S(=O)(NCCc1c(C(c2ccc(F)cc2)c2[nH]c3ccccc3c2CCNS(=O)(=O)c2ccc(C(F)(F)F)cc2)[nH]c2ccccc12)c1ccc(C(F)(F)F)cc1 [compound 42] | 5.357 |
| Cc1ccc2[nH]c(-c3ccc(-c4nnc5n4N=C(c4ccc(Cl)cc4)CS5)cc3)nc2c1 [compound 79] | 5.927 |
